pEC50, pIC50: −log10 of the molar value. Entries after “also recorded” stand apart in the source; their conditions may differ.
Legend:
GPR3 [1] = biological target: T1, GPR3 (Homo sapiens, UniProt P46089); test: Inhibition of OA-induced GPR3 activation, GloSensor cAMP assay in GPR3 stably expressing AD293 cell line; format: cell-based; conditions: OA concentration fixed at 300 μM; read-out: IC50 of OA-induced receptor activation
T1 construct: expressed in transfected cells
Method: (§1) The GloSensor cAMP assay was performed according to the instructions of Promega. AD293 cells were split into 6-well plate (300,000 cells/mL) and then transfected with the pGloSensor™-22F cAMP plasmid and pcDNA3-GPR3 plasmid by Lipofectamine 2000, at a ratio of 2:1 (μL:μg). 24 h after transfection, cells were split into 96-well plate for another 24 h incubation. After removal of cell medium, 90 μL of 3% v/v (the GloSensor cAMP reagent vs serum-free medium) substrate was added into each well. After 2 h incubation at RT, background measurements were taken, and then 10 μL 10× stock compounds were added for the second measurements of ligand activation via EnVision 2105 (PerkinElmer). Relative cAMP level was calculated by the cAMP level after addition of ligand divided by the cAMP level before addition of ligand (basal level). Stock FAs (i.e., 10–50 mM) were solubilized in DMSO, then diluted in cell culture buffer to designated concentrations and sonicated to ensure that they were evenly distributed in the buffer before being added to cells.
(§2) AD293 cells were split into 6-well plate (300,000 cells/mL), and then transfected with the pGloSensor™-22F cAMP plasmid and the pcDNA6-GPR3-3× FLAG plasmid (WT receptor or the mutants, F120A^3.36, W260A^6.48, L283F^7.39, A201W^5.46, Y280A^7.36, H96A^2.60 and H96A^2.60/Y280A^7.36) by Lipofectamine 2000 at a ratio of 2:1 (μL:μg). […]

GPR3 [2] = biological target: T1, GPR3; test: GloSensor cAMP assay in GPR3 stably expressing AD293 cell line (agonist mode); format: cell-based
Method: as §1
AD293 cells were split into 6-well plate (300,000 cells/mL), and then transfected with the pGloSensor™-22F cAMP plasmid and the pcDNA6-GPR3-3× FLAG plasmid (WT receptor or the mutants, F120A^3.36, W260A^6.48, L283F^7.39, A201W^5.46, Y280A^7.36, H96A^2.60 and H96A^2.60/Y280A^7.36) by Lipofectamine 2000 at a ratio of 2:1 (μL:μg). Geneticin (2 mg/mL) and blasticidin (20 μg/mL) were used to select colonies that stably express both GPR3 and GloSensor 22F. The cell culture medium containing antibiotics was changed every 2 days till well-separated colonies appeared. Then individual single colony was picked by a small piece of sterilized filter paper soaked with trypsin and separately cultured in a single well of 24-well plate. At least 24 candidate colonies were selected for each mutant and WT. After several days of culture, each colony was triplicated. One of the triplicates was used for western blot analysis, another for the GloSensor cAMP assay, and the remaining one was stored for staining. The colonies with top scores in both expression (western blot) and functional assay were selected as the representative colonies for each mutant or WT for further analysis.

GPR6 = biological target: T2, GPR6 (Homo sapiens, UniProt P46095); test: GloSensor cAMP assay in GPR6 stably expressing AD293 cell line; format: cell-based; conditions: lipid concentration 300 μM
T2 construct: FLAG; expressed in transfected cells
T2 sequence (P46095 whole entry, species assumed): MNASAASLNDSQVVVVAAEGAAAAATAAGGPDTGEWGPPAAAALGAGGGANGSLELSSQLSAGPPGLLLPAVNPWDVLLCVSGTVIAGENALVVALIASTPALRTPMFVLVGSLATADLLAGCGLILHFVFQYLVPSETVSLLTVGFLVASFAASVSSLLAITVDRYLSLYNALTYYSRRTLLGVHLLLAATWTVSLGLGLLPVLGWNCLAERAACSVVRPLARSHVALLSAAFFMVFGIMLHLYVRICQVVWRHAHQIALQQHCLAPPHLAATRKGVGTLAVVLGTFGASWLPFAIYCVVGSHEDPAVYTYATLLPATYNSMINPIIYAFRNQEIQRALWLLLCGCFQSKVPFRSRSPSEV

GPR120 = test system: GPR120; design: method as in PMID 36862765; conditions: cited from earlier work
[3] = test system: Gs/cAMP/PKA signaling in iBAT; test: Ex vivo iBAT of WT mice, p-PKA substrate immunoblot; format: cell-based, mouse; conditions: up to 4 h
Method: iBAT was isolated from C57BL/6N mice at 4-6 weeks old and cut into 10 mg pieces. […] Another group of iBAT pieces were incubated in DMEM medium at 4 °C, and treated with different doses of OA (0 mM, 1 mM, 5 mM) for 4 h. OA (Sigma, O1008) was dissolved in serum-free DMEM (Gibco, high glucose, 12100046) by using an ultrasonic cleaner at 40 °C for 10 min.

[4] = design: method as in PMID 7722695, PMID 18059405; conditions: feeding rats with OA; cited from earlier work
GPR3 Y280A mutant = biological target: T3, GPR3 Y280A mutant (Homo sapiens, UniProt P46089, Y280A); test: OA dose-response, GloSensor cAMP assay, AD293 stably expressing GPR3 Y280A mutant; format: cell-based; conditions: Table S3, Y280A
T3 construct: expressed in transfected cells
T3 sequence (P46089 whole entry Y280A): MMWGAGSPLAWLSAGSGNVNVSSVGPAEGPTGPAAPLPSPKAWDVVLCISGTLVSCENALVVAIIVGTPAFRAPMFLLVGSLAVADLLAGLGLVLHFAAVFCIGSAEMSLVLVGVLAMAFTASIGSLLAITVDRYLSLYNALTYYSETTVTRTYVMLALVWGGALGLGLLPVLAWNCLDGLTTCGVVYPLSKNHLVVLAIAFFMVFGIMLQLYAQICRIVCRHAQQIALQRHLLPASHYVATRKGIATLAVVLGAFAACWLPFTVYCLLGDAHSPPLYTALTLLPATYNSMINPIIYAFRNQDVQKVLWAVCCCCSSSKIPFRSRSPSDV
Method: as §1, §2

GPR3 H96A mutant = biological target: T4, GPR3 H96A mutant (Homo sapiens, UniProt P46089, H96A); test: OA dose-response, GloSensor cAMP assay, AD293 stably expressing GPR3 H96A mutant; format: cell-based; conditions: Table S3, H96A
T4 construct: expressed in transfected cells
T4 sequence (P46089 whole entry H96A): as the sequence (P46089 whole entry Y280A) above, with H96A, A280Y counted along it
Method: as §1, §2

GPR12 = biological target: T5, GPR12 (Homo sapiens, UniProt P47775); test: GloSensor cAMP assay in GPR12 stably expressing AD293 cell line; format: cell-based; conditions: lipid concentration 300 μM
T5 construct: FLAG; expressed in transfected cells
T5 sequence (P47775 1-334): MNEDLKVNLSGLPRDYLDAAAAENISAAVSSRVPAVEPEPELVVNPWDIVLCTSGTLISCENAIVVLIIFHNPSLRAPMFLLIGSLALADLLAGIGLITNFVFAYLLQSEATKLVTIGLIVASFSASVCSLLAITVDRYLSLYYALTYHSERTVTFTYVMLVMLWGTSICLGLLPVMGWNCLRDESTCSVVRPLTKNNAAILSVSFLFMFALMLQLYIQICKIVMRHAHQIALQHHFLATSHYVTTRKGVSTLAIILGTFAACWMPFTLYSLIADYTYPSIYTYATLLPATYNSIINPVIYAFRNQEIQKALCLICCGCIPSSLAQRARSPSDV

[5] = test system: Gs/cAMP/PKA signaling in Gpr3 KO iBAT; test: Ex vivo iBAT of Gpr3 KO mice, p-PKA substrate immunoblot; format: cell-based, mouse; conditions: OA 1 mM, 4 h
Method: iBAT was isolated from C57BL/6N mice at 4–6 weeks old and cut into 10 mg pieces. 10 mg iBAT was further cut into four pieces.[67] iBAT pieces were incubated in Dulbecco’s modified eagle medium (DMEM) at 4 °C, and treated with OA (1 mM) for different times (0 h, 1 h, 2 h, and 4 h). Another group of iBAT pieces were incubated in DMEM medium at 4 °C, and treated with different doses of OA (0 mM, 1 mM, 5 mM) for 4 h. OA (Sigma, O1008) was dissolved in serum-free DMEM (Gibco, high glucose, 12100046) by using an ultrasonic cleaner at 40 °C for 10 min. p-(S/T)PKA substrate and GAPDH levels were measured by immunoblotting, and quantified by densitometry using ImageJ. iBAT was also isolated from WT and Gpr3 KO mice at 4–6 weeks old and cut into 10 mg pieces. 10 mg iBAT was further cut into four pieces. iBAT pieces were incubated in DMEM medium at 4 °C, and treated with or without OA (1 mM) for 4 h. p-(S/T)PKA substrate and GAPDH levels were measured by immunoblotting, and quantified by ImageJ.
To generate Gpr3 complete KO mice rapidly, we performed one-step complete knockout based on CRISPR/Cas9 systems, which was described previously.[68] Briefly, four adjacent single-guide RNAs (sgRNAs) (spaced 50–100 bp apart; sgRNA1: […]; sgRNA2: […]; sgRNA3: […]; sgRNA4: […]) that target key exon of Gpr3 were designed. […]

GPR3 L283F mutant = biological target: T6, GPR3 L283F mutant (Homo sapiens, UniProt P46089, L283F); test: OA dose-response, GloSensor cAMP assay, AD293 stably expressing GPR3 L283F mutant; format: cell-based; conditions: Table S3, L283F
T6 construct: expressed in transfected cells
T6 sequence (P46089 whole entry L283F): as the sequence (P46089 whole entry Y280A) above, with A280Y, L283F counted along it
Method: as §1, §2

GPR3 H96A/Y280A mutant = biological target: T7, GPR3 H96A/Y280A mutant (Homo sapiens, UniProt P46089, H96A/Y280A); test: OA dose-response, GloSensor cAMP assay, AD293 stably expressing GPR3 H96A/Y280A mutant; format: cell-based; conditions: H96A/Y280A stable line
T7 construct: expressed in transfected cells
T7 sequence (P46089 whole entry H96A/Y280A): as the sequence (P46089 whole entry Y280A) above, with H96A counted along it
Method: as §1, §2

GPR3 W260A mutant = biological target: T8, GPR3 W260A mutant (Homo sapiens, UniProt P46089, W260A); test: OA dose-response, GloSensor cAMP assay, AD293 stably expressing GPR3 W260A mutant; format: cell-based; conditions: W260A stable line
T8 construct: expressed in transfected cells
T8 sequence (P46089 whole entry W260A): as the sequence (P46089 whole entry Y280A) above, with W260A, A280Y counted along it
Method: as §1, §2

GPR3 A201W mutant = biological target: T9, GPR3 A201W mutant (Homo sapiens, UniProt P46089, A201W); test: OA dose-response, GloSensor cAMP assay, AD293 stably expressing GPR3 A201W mutant; format: cell-based; conditions: Table S3, A201W
T9 construct: expressed in transfected cells
T9 sequence (P46089 whole entry A201W): as the sequence (P46089 whole entry Y280A) above, with A201W, A280Y counted along it
Method: as §1, §2

GPR3 F120A mutant = biological target: T10, GPR3 F120A mutant (Homo sapiens, UniProt P46089, F120A); test: OA dose-response, GloSensor cAMP assay, AD293 stably expressing GPR3 F120A mutant; format: cell-based; conditions: Table S3, F120A
T10 construct: expressed in transfected cells
T10 sequence (P46089 whole entry F120A): as the sequence (P46089 whole entry Y280A) above, with F120A, A280Y counted along it
Method: as §1, §2

[6] = Table S2, relative cAMP level, at 500 μM (FA 12:0, 16:1, 18:0, OEA 18:1, OLM 18:1), 450 μM (FA 18:1), 400 μM (FA 16:0), 300 μM (FA 22:0, 18:2), 100 μM (FAME 18:0, FAEE 18:0, lysophospholipids), 3 μM (LTB4)
[7] = cAMP induction, GPR3 stably expressing AD293
[8] = WT iBAT at 4 °C, lipid 1 mM (OA also 5 mM)
[9] = Table S3, WT receptor stable line, OA dose-response

T1 sequence (P46089 whole entry): as the sequence (P46089 whole entry Y280A) above, with A280Y counted along it

Compound	cAMP induction activity (in words) (GPR3 [2]; GPR3 stably expressing AD293)	maximum response (GPR3 [2]; [6])	Emax compared to Emax of OA (GPR3 [2]; cAMP assay)	pEC50 (GPR3 [2]; [7])	also measured
CC(C)Oc1cc(Cl)ccc1CNc1cc(-c2ccccc2)nc2ncnn12 [AF64394]					pIC50 (GPR3 [1]): 6.77
CCCCCCCCCCCCCCCCCCCCCC(=O)O [BEH, behenic acid]	no activity at all; also recorded: failed to activate the receptor	1.0			
c1ccc2c(c1)[I+]c1ccccc1-2 [DPI, diphenyleneiodonium chloride]			higher Emax		
CCCCCCCCCCCCCCCCCC(=O)OCC [ETS, ethyl stearate]	completely abolished receptor activation; also recorded: failed to activate the receptor	0.6			
CCCCCCCCCCCC(=O)O [LAU, lauric acid]	fully activate GPR3	204.5	higher Emax than OA	3.49	GPR6 activation (in words) (GPR6): strongly activated GPR6
CCCCC/C=C\C/C=C\CCCCCCCC(=O)O [LIN, Linoleic acid]	failed to activate the receptor; also recorded: almost no activity	2.9			pEC50 (GPR120): 4.24; Gs/cAMP/PKA signaling (phosphorylation of PKA substrates) [3, 8]: neither STE nor LIN induced Gs/cAMP/PKA signaling
CCCCC/C=C\C[C@@H](O)/C=C/C=C/C=C\[C@@H](O)CCCC(=O)O [LTB4, leukotriene B4]	failed to activate GPR3	0.8			
CCCCCCCCCCCCCCCCCC(=O)OC [MES, methyl stearate]	completely abolished receptor activation; also recorded: failed to activate the receptor	0.9			
CCCCCCCC/C=C\CCCCCCCC(=O)O [OA, oleic acid]		164.1		3.52	thermogenesis and body weight [4]: induces thermogenesis and reduces body weight; pEC50 (GPR120): 4.39; pEC50 (GPR3 Y280A mutant): 3.49; maximum response (GPR3 Y280A mutant): 61.91; pEC50 (GPR3 H96A mutant): 3.59; maximum response (GPR3 H96A mutant): 83.68; pEC50 (GPR3 [2]; [9]): 3.53; maximum response (GPR3 [2]; [9]): 186.6; GPR12 activation (in words) (GPR12): strongest effect on GPR12 activation; Gs/cAMP/PKA signaling (phosphorylation of PKA substrates) [3, 8]: robust increase of Gs/cAMP/PKA signaling; also recorded: substantially increased Gs/cAMP/PKA signaling; Gs/cAMP/PKA signaling (phosphorylation of PKA substrates) ([3]; WT iBAT at 37 °C, OA 1 mM, 5 mM): to a lesser extent than in the samples treated at 4 °C; induction of Gs/cAMP/PKA signaling by OA [5]: completely blocked; maximum response (GPR3 L283F mutant): 39.13; Emax compared to WT receptor (in words) (GPR3 H96A/Y280A mutant): lower Emax than the WT receptor; response to OA (in words) (GPR3 W260A mutant): completely lost their response to OA; pEC50 (GPR3 A201W mutant): 3.54; maximum response (GPR3 A201W mutant): 157.9; pEC50 (GPR3 F120A mutant): 3.60; maximum response (GPR3 F120A mutant): 23.67
CCCCCCCC/C=C\CCCCCCCC(=O)NCCO [OEA, oleoylethanolamide]		60.9	half of the Emax of OA	3.47	
CCCCCCCC/C=C\CCCCCCCC(N)=O [OLM, Oleamide]		75.1	half of the Emax of OA	3.48	
CCCCCCCCCCCCCCCC(=O)O [PAL, palmitic acid]		118.7	slightly lower Emax than OA	3.51	
CCCCCC/C=C\CCCCCCCC(=O)O [PML, palmitoleic acid]		61.8		3.48	Emax / receptor activation compared to PAL (GPR3 [2]; cAMP assay): half of the Emax of PAL; also recorded: substantially decreased receptor activation compared to PAL; GPR6 activation (in words) (GPR6): strongly activated GPR6
CCCCCCCCCCCCC/C=C/[C@@H](O)[C@@H](N)COP(=O)(O)O [S1P, sphingosine-1-phosphate]	none of the lysophospholipids that we tested exhibited cAMP induction activity	0.6			
CCCCCCCCCCCCCCCCCC(=O)O [STE, stearic acid]	weak activity	44.8	about 1/3	3.44	Gs/cAMP/PKA signaling (phosphorylation of PKA substrates) [3, 8]: neither STE nor LIN induced Gs/cAMP/PKA signaling
LPA 16:0	none of the lysophospholipids that we tested exhibited cAMP induction activity	0.5			
LPA 18:1	none of the lysophospholipids that we tested exhibited cAMP induction activity	0.5			
LPC 14:0	none of the lysophospholipids that we tested exhibited cAMP induction activity	1.8			

— publication PMC10907358, “Identification of oleic acid as an endogenous ligand of GPR3” (Cell Research, 2024)
